Measurements: the NIST ThermoML archive (doi:10.1016/j.jct.2013.12.002)
Numbers after ± are expanded uncertainties.

Assay: osmotic coefficient (dimensionless); mn = molality of the nth substance listed, in mol/kg
Conditions: 323.15 K, 101 kPa, Liquid, Knauer K-7000 vapour pressure osmometer

CCCC[N+]1(C)CCCC1.N#CN=C=[N-] [1-butyl-1-methylpyrrolidinium dicyanamide] + CC(C)O
Conditions	osmotic coefficient
m1 = 0.0709	0.942 ± 0.013
m1 = 0.1087	0.878 ± 0.013
m1 = 0.1972	0.827 ± 0.014
m1 = 0.2934	0.778 ± 0.014
m1 = 0.3976	0.75 ± 0.015
m1 = 0.4909	0.722 ± 0.016
m1 = 0.7769	0.685 ± 0.016
m1 = 1.175	0.645 ± 0.017
m1 = 1.595	0.631 ± 0.018
m1 = 1.998	0.612 ± 0.018
m1 = 2.419	0.608 ± 0.018
m1 = 2.821	0.595 ± 0.019
m1 = 3.296	0.59 ± 0.019

CCCC[N+]1(C)CCCC1.N#CN=C=[N-] [1-butyl-1-methylpyrrolidinium dicyanamide] + CCC(C)O
Conditions	osmotic coefficient
m1 = 0.0878	0.793 ± 0.014
m1 = 0.1149	0.755 ± 0.015
m1 = 0.1863	0.705 ± 0.016
m1 = 0.2981	0.641 ± 0.017
m1 = 0.4092	0.621 ± 0.018
m1 = 0.5397	0.591 ± 0.019
m1 = 0.8291	0.58 ± 0.019
m1 = 1.213	0.555 ± 0.02
m1 = 1.611	0.556 ± 0.02
m1 = 2.019	0.548 ± 0.02
m1 = 2.4	0.539 ± 0.02
m1 = 2.776	0.533 ± 0.02
m1 = 3.307	0.523 ± 0.021

CCCC[N+]1(C)CCCC1.N#CN=C=[N-] [1-butyl-1-methylpyrrolidinium dicyanamide] + CCCCCO
Conditions	osmotic coefficient
m1 = 0.0446	0.63 ± 0.018
m1 = 0.0818	0.59 ± 0.019
m1 = 0.1078	0.558 ± 0.02
m1 = 0.1865	0.512 ± 0.021
m1 = 0.299	0.491 ± 0.022
m1 = 0.3928	0.477 ± 0.022
m1 = 0.5108	0.467 ± 0.022
m1 = 0.8086	0.453 ± 0.023
m1 = 1.191	0.444 ± 0.023
m1 = 1.598	0.435 ± 0.023
m1 = 2.004	0.425 ± 0.024
m1 = 2.406	0.417 ± 0.024
m1 = 2.798	0.409 ± 0.024
m1 = 3.063	0.404 ± 0.024

CCCC[N+]1(C)CCCC1.N#CN=C=[N-] [1-butyl-1-methylpyrrolidinium dicyanamide] + CCCCO
Conditions	osmotic coefficient
m1 = 0.0577	0.734 ± 0.017
m1 = 0.0761	0.68 ± 0.017
m1 = 0.1089	0.665 ± 0.017
m1 = 0.2006	0.624 ± 0.018
m1 = 0.296	0.602 ± 0.019
m1 = 0.4011	0.587 ± 0.019
m1 = 0.4745	0.581 ± 0.019
m1 = 0.8117	0.57 ± 0.019
m1 = 1.214	0.551 ± 0.02
m1 = 1.617	0.541 ± 0.02
m1 = 2.033	0.532 ± 0.02
m1 = 2.43	0.52 ± 0.021
m1 = 2.845	0.516 ± 0.021
m1 = 3.308	0.508 ± 0.021

CCCC[N+]1(C)CCCC1.N#CN=C=[N-] [1-butyl-1-methylpyrrolidinium dicyanamide] + CCCO
Conditions	osmotic coefficient
m1 = 0.0836	0.9 ± 0.013
m1 = 0.119	0.858 ± 0.013
m1 = 0.2054	0.8 ± 0.014
m1 = 0.2962	0.743 ± 0.015
m1 = 0.4029	0.71 ± 0.016
m1 = 0.502	0.689 ± 0.016
m1 = 0.7791	0.653 ± 0.017
m1 = 1.182	0.614 ± 0.018
m1 = 1.61	0.587 ± 0.019
m1 = 2	0.576 ± 0.019
m1 = 2.442	0.565 ± 0.02
m1 = 2.865	0.56 ± 0.02
